Measurements taken from patent publication US12698289B2, “Solid forms of pharmaceutically acceptable salts of (S)-(2-ethyl-5-fluoro-4-hydroxyphenyl)-1H-indazol-3-yl)-4,6-dihydropyrrolo[3,4-d]imidazol-5(1H)-yl)(3-hydroxypyrrolidin-1-yl)methanone as JAK inhibitors” (HENAN MEDINNO PHARMACEUTICAL TECHNOLOGY CO., LTD., priority 2019, dated 2026).

Test system: human T cells
Experiment: IL-2 induced human T cell proliferation assay (Celltiter Glo)
Details: HT, 72 h, read-out: IC50 (nM), human T cell proliferation
Text: The purpose of this example is to assay the activity of the compound in the JAK cell activity assay-human T cell proliferation assay.

In the case of CCc1cc(O)c(F)cc1-c1ccc2c(-c3nc4c([nH]3)CN(C(=O)N3CC[C@H](O)C3)C4)n[nH]c2c1 [Compound of formula (I), (S)-(2-(6-(2-ethyl-5-fluoro-4-hydroxyphenyl)-1H-indazol-3-yl)-4,6-dihydropyrrolo[3,4-d]imidazol-5-(1H)-yl) (3-hydroxy pyrrolidin-1-yl) ketone], the IC50 is reported as 13 nM.
